The record followed here is patent US9248148B2, “Mono (iron hydroxypyrone) and combination (iron hydroxypyrone and GI inflammation inhibiting agents) compositions for anaemia or H. pylori infections” (Iron Therapeutics Holdings AG, priority 2008, dated 2016).

The series has as its system anaemia due to blood loss. The series is described as follows: Patient 1: anaemia after surgical blood loss, treated while continuing Gaviscon (acid reducer). The text has this: The patient had been taking Gaviscon™ which contains potassium bicarbonate as an acid reducer to reduce acid reflux. […] They continued to take Gaviscon™ but was also given ferrous sulphate tablets for their anaemia.

Consider `O=S(=O)([O-])[O-].[Fe+2]` [ferrous sulphate], for which, under “patient 1, continuing Gaviscon (potassium bicarbonate)”, the correction of anaemia entry is “failed to correct their anaemia”. The “tolerability / side effects” value (patient 1, continuing Gaviscon, maltol and ferrous gluconate at 45 mg/day) was “serious side effects of gastric intolerance and severe headaches”.
